Series [1] deals with H441 p-ERK. Kind of series: Cell p-ERK assay (HTRF), NCI-H441 cells. Format: cell-based, human. To be noted: NCI-H441 cells (KRAS G12V), 3 h incubation. An outline of the steps:
(§1)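 AsPC-1 (10000/well) or NCI-H441 (20000/well) cells were seeded overnight and then exposed to compound for 3 h at 37 °C. Lysates were probed for ERK phospho-T202/Y204 by HTRF with a 4-hour antibody incubation. IC50 values came from four-parameter fits of inhibition against log concentration.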
For orientation: In TR-FRET formats the signal depends on donor and acceptor labels being close together.

The test system of series [2] is AsPC-1 p-ERK. In words: Cell p-ERK assay (HTRF), AsPC-1 cells. Format: cell-based, human. To be noted: AsPC-1 cells (KRAS G12D), 3 h incubation, read-out: AsPC-1 p-ERK IC50. An outline of the steps: as §1
Series [3] concerns NCI-H441 cells. Kind of series: 3D cell proliferation assay (CellTiter Glo-3D), NCI-H441. In kind it is cell-based, human. To be noted: NCI-H441 cells (KRAS G12V), 2% FBS, 5 days, read-out: H441 AP IC50. An outline of the steps:
(§2)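 Cells seeded at 800 per well (AsPC-1, NCI-H441) in 2% FBS medium and incubated overnight at 37 °C, 5% CO2. Compounds added next day from 10× stock, then 5 days' further culture. Viability read by CellTiter-Glo luminescence; IC50 from four-parameter fit of inhibition versus log concentration.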
In general terms: In ATP-based viability assays light output follows the ATP content of the culture.

For series [4], the system named is AsPC-1 cells. In words: 3D cell proliferation assay (CellTiter Glo-3D), AsPC-1. In kind it is cell-based, human. Conditions: AsPC-1 cells (KRAS G12D), 3D, 2% FBS, 5 days, read-out: AsPC-1 AP IC50. An outline of the steps:
as §2

Series [5] is described as follows: Human liver microsomal stability experiment. In kind it is in vitro ADME. Conditions: human liver microsomes; for CLint scaled: 45 mg/g, 20.7 g/kg scaling. The protocol:
This experiment was intended to investigate the metabolic stability of the test compounds in human liver microsomes. The materials used in the experiment included 10 mM solutions of the test compounds and the control sample, human liver microsomes, and reduced nicotinamide adenine dinucleotide phosphate (NADPH) powder. In the experiment, a 100 mM potassium phosphate buffer was used as the buffer system.
The liver microsome working solution was prepared by diluting the liver microsome stock solution to 0.75 mg/mL using the 100 mM potassium phosphate buffer. Then, 5 µL of the 10 mM stock solution of the test compound was taken, and 195 µL of methanol was added. The mixture was well mixed to prepare a working solution A with a concentration of 0.25 mM. Subsequently, the working solution A was diluted to 1.5 µM using the liver microsome working solution to prepare a compound-liver microsome mixed solution. Additionally, NADPH powder was dissolved in 100 mM potassium phosphate buffer to prepare a 6 mM NADPH solution. The compound-liver microsome mixed solution was dispensed into a 96-well plate at 30 µL/well, with labeled time points of 0 min, 30 min, and 60 min. For 0-min samples, 180 µL of acetonitrile containing 100 ng/mL tolbutamide and 15 µL of the NADPH solution were added directly. The 96-well plate and the NADPH solution were then preheated under a 37 °C water bath for 5 min. After the preheating, 15 µL of the NADPH solution was added to each of the 30-min and 60-min sample wells. The plate was gently shaken for mixing and then incubated under the 37 °C water bath for the corresponding time. After the incubation was completed, 180 µL of acetonitrile containing 100 ng/mL tolbutamide was added to each sample well. The plate was sealed with a sealing film, shaken for 10 min (800 rpm/min), and then centrifuged for 15 min (4000 rpm). After the centrifugation, 50 µL of the supernatant was taken and added to a 96-well plate containing 150 µL of deionized water, and then the plate was sealed and shaken for 10 min (800 rpm) for uniform mixing. Subsequently, sample analysis was performed using liquid chromatography-tandem mass spectrometry (LC-MS/MS). […] For humans, the microsome protein-to-liver weight ratio was 45 mg/g, and the liver-to-body weight ratio was 20.7 g/kg.
For orientation: Liver microsomes are a subcellular fraction often used to study metabolism.

For series [6], the target named is KRAS WT-cRAF (Homo sapiens, UniProt P01116+P62937). Kind of series: Assay for binding of KRAS to cRAF (HTRF, with Cyclophilin A), KRAS WT.
Sequence of KRAS WT-cRAF (P01116 1-188 isoform P01116-2): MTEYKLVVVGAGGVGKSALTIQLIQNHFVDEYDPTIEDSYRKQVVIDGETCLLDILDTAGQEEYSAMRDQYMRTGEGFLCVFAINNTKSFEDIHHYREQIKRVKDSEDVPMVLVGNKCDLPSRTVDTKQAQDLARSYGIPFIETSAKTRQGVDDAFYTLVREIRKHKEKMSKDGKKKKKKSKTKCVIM
Sequence of KRAS WT-cRAF (P62937 whole entry): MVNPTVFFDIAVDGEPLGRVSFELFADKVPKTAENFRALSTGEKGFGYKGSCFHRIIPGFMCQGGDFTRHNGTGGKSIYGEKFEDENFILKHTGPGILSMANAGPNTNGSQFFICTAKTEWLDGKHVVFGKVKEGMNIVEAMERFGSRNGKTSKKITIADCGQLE
Experimental: (§3) The plate was centrifuged at 1000 rpm for 1 min and then incubated in the thermostatic incubator at 20 °C for 30 min. […] The plate was centrifuged at 1000 rpm for 1 min and then incubated in the thermostatic incubator at 20 °C for 60 min. […] The working solution was added to the aforementioned assay plate at 5 µL/well. The plate was centrifuged at 1000 rpm for 1 min and then incubated in the thermostatic incubator at 20 °C for 60 min.
Series [7] has as its target KRAS G12V-cRAF (Homo sapiens, UniProt P01116+P62937, G12V). In words: Assay for binding of KRAS to cRAF (HTRF, with Cyclophilin A), KRAS G12V.
Experimental: as §3
Series [8] in a line: Solubility experiment (HPLC, external standard). In kind it is physicochemical. To be noted: 37 °C, 24 h. An outline of the steps: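 Solid compound (about 1 mg per 1 mL medium) was shaken at 37 °C for 24 h in pH 1.2, 4.5 or 7.4 media, then centrifuged and the supernatant diluted with acetonitrile/water 50/50. Concentration in μg/mL was found by HPLC against an external standard prepared from a DMSO stock.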

[9] abbreviates: read-out: KRAS WT-cRAF binding assay, GPPNP-KRAS WT, IC50 values.
Where [10] appears, read: read-out: KRAS G12V-cRAF binding assay, GPPNP-KRAS G12V, IC50 values.

This note sets out measurements from EP4775582A1, “MACROCYCLIC COMPOUND AND ANTIBODY-DRUG CONJUGATE THEREOF” (Genfleet Therapeutics (Shanghai) Inc., priority 2023, dated 2025).

Structures are written as SMILES. In brackets after ≈: the same amount, converted by molar mass. Read-outs that look alike come from different tables or passages of the source.

Sequence of KRAS G12V-cRAF (P01116 1-188 isoform P01116-2 G12V): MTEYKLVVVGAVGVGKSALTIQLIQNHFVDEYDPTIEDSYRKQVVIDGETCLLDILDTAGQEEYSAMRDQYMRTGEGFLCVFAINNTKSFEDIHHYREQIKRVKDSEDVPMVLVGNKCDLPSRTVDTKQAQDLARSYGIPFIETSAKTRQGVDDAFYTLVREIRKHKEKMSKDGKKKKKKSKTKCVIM
Sequence of KRAS G12V-cRAF (P62937 whole entry): as the sequence (P62937 whole entry) above

Usually IC50 stands for the midpoint of a concentration-inhibition curve. Broadly, the half-life is how long it takes for the measured level to halve. One may read the CLint scaled as the rate of metabolic loss divided by the concentration. Regarding `CCn1c(-c2cc(C#CCN3CCC(O)CC3)cnc2C(C)OC)c2c3cc(ccc31)-c1csc(n1)CC(NC(=O)C1C(C)C1C)C(=O)N1CCCC(N1)C(=O)OCC(C)(C)C2` (atropisomer, axis not shown; (Ra)) [Compound Z11, (1r,2R,3S)-N-((6^3S,4S,Z)-1^1-ethyl-(Ra)-1^2-(5-(3-(4-hydroxypiperidin-1-yl)prop-1-yn-1-yl)-2-((S)-1-methoxyethyl)pyridin-3-yl)-10,10-dimethyl-5,7-dioxo-6^1,6^2,6^3,6^4,6^5,6^6-hexahydro-1^1H-8-oxa-2(4,2)-thiazola-1(5,3)-indola-6(1,3)-pyridazinacycloundecaphane-4-yl)-2,3-dimethylcyclopropane-1-carboxamide], the IC50 in series [1] (Homo sapiens) worked out at 0.21 nM; in series [2] (Homo sapiens, ASPC1) it was 0.11 nM; in series [3] (Homo sapiens, 120 h), 0.1 nM; in series [4] (Homo sapiens, ASPC1, 120 h) it was 0.15 nM; in series [6] (KRAS WT-cRAF binding assay(nM), GPPNP-KRAS WT, IC50 values), 27.7 nM; in series [7] (KRAS G12V-cRAF binding assay(nM), GPPNP-KRAS G12V, IC50 values) it was 12.3 nM. The half-life at 1 µM in series [5] (NADPH, 37 °C) was 30.3 min. The CLint scaled in series [5] stood at 52.9 mL/min/kg.

The Solubility is the dissolved amount per volume that the medium holds. Higher therefore signals much dissolved substance. Regarding `CCn1c(-c2cc(C#CCN3CCC(C#N)(CN)CC3)cnc2[C@H](C)OC)c2c3cc(ccc31)-c1coc(n1)C[C@H](NC(=O)[C@H]1[C@@H]3COC[C@@H]31)C(=O)N1CCC[C@H](N1)C(=O)OCC(C)(C)C2` (atropisomer, axis not shown; (Ra)) [Compound Z166, (1R,5S,6r)-N-((6^3S,4S,Z)-(Ra)-1^2-(5-(3-(4-(aminomethyl)-4-cyanopiperidin-1-yl)prop-1-yn-1-yl)-2-((S)-1-methoxyethyl)pyridin-3-yl)-1^1-ethyl-10,10-dimethyl-5,7-dioxo-6^1,6^2,6^3,6^4,6^5,6^6-hexahydro-1^1H-8-oxa-2(4,2)-oxazola-1(5,3)-indola-6(1,3)-pyridazinacycloundecaphane-4-yl)-3-oxabicyclo[3.1.0]hexane-6-carboxamide], the IC50 in series [1] was 0.2 nM; in series [2], 0.1 nM; in series [3], 0.37 nM; in series [4] it was 0.12 nM; in series [6] (setting [9]) it was 38.9 nM; in series [7] (setting [10]), 12.9 nM. In addition, the “T1/2” value in series [5] (NADPH, 37 °C) amounted to 19.6 min. For the same compound, the “Solubility at pH 7.4 (µg/mL)” value in series [8] (pH 7.4 medium) was determined as 26.76 µg/mL.

With `CCn1c(-c2cc(C#CCN3CCC(C#N)(CN)CC3)cnc2[C@H](C)OC)c2c3cc(ccc31)-c1csc(n1)C[C@H](NC(=O)[C@H]1[C@@H]3COC[C@@H]31)C(=O)N1CCC[C@H](N1)C(=O)OCC(C)(C)C2` (atropisomer, axis not shown; (Ra)) [Compound Z52, (1R,5S,6r)-N-((6^3S,4S,Z)-(Ra)-1^2-(5-(3-(4-(aminomethyl)-4-cyanopiperidin-1-yl)prop-1-yn-1-yl)-2-((S)-1-methoxyethyl)-pyridin-3-yl)-1^1-ethyl-10,10-dimethyl-5,7-dioxo-6^1,6^2,6^3,6^4,6^5,6^6-hexahydro-1^1H-8-oxa-2(4,2)-thiazola-1(5,3)-indola-6(1,3)-pyridazinacycloundecaphane-4-yl)-3-oxabicyclo[3.1.0]hexane-6-carboxamide], the IC50 came out at 0.13 nM in series [1]; 0.06 nM in series [2]; 0.17 nM in series [3]; 0.08 nM in series [4]; 16.5 nM in series [6] (setting [9]); 13.3 nM in series [7] (setting [10]). In addition, the “T1/2” value in series [5] (NADPH, 37 °C) amounted to 47.3 min.

By solubility is commonly meant how much of the substance goes into solution per volume. Read a high solubility as a readily soluble substance. `CCn1c(-c2cc(C#CCN3CCN(C(C)=O)CC3)cnc2[C@H](C)OC)c2c3cc(ccc31)-c1csc(n1)C[C@H](NC(=O)[C@H]1[C@H](C)[C@@H]1C)C(=O)N1CCC[C@H](N1)C(=O)OCC(C)(C)C2` (atropisomer, axis not shown) [Control compound 2] gave a half-life in series [5] (NADPH, 37 °C) of 9.8 min. In series [5], the CLint scaled is 164 mL/min/kg. The compound also had a solubility at 24 h in series [8] (ph 7.4 medium, pH 7.4, pH 7.4 medium) of 1.5 µg/mL (≈ 1.68 µM). Further, the IC50 was determined as 48.6 nM in series [6] (setting [9]) and 10.9 nM in series [7] (setting [10]).
